Several values for one entry are separate records, joined by “and”; a condition that tells them apart may be missing. Equal values may be shown once. Read-outs that look alike come from different tables or passages of the source.
Assays:
[1] = tested on: cells (nuclei count); conditions: for Relative cell count to DMSO controls, Average 1 μM / Relative cell count to DMSO controls, Average 5 μM / Relative cell count to DMSO controls, Average 10 μM / Relative cell count to DMSO controls, Average 25 μM / Relative cell count to DMSO controls, Average 50 μM: toxicity data, 100=DMSO control; for Toxicity Data, Average, Mean percentage relative to DMSO control: Average of Exp 1 (SMW491) and Exp 2 (SMW492); for Relative cell count to DMSO controls, Average (for correlation analysis): average value over the 5 tested concentrations (1 to 50 uM)
[2] = tested on: SARS2; assay type: cell-based, SARS-CoV-2; conditions: for Percentage Infection Relative to Appropriate DMSO Control with Avg Background Subtraction: Nunc Celigo plates; for Percentage Inhibition Average 1 μM / Screening data (Relative infection to DMSO controls) Average 1 μM: SARS2, 1 μM; for Screening data (Relative infection to DMSO controls) Average 1 μM / Screening data (Relative infection to DMSO controls) Average 5 μM / Screening data (Relative infection to DMSO controls) Average 10 μM / Screening data (Relative infection to DMSO controls) Average 25 μM / Screening data (Relative infection to DMSO controls) Average 50 μM / Average (relative infection to DMSO over the 5 tested concentrations): 100=DMSO control; for Percentage Inhibition Average 5 μM / Screening data (Relative infection to DMSO controls) Average 5 μM: SARS2, 5 μM; for Percentage Inhibition Average 10 μM / Screening data (Relative infection to DMSO controls) Average 10 μM: SARS2, 10 μM; for Percentage Inhibition Average 25 μM / Screening data (Relative infection to DMSO controls) Average 25 μM: SARS2, 25 μM; for Percentage Inhibition Average 50 μM / Screening data (Relative infection to DMSO controls) Average 50 μM: SARS2, 50 μM; for Average (relative infection to DMSO over the 5 tested concentrations): SARS2, average over 1 to 50 uM; for Infection Data, Average, Mean: average of Exp 1-2 (SMW491, SMW492)

SMILES	Relative cell count to DMSO controls, Average 1 μM [1]	Relative cell count to DMSO controls, Average 5 μM [1]	Relative cell count to DMSO controls, Average 10 μM [1]	Relative cell count to DMSO controls, Average 25 μM [1]	Relative cell count to DMSO controls, Average 50 μM [1]	Relative cell count to DMSO controls, Average (for correlation analysis) [1]	Percentage Inhibition Average 1 μM [2]	Screening data (Relative infection to DMSO controls) Average 1 μM [2]	Percentage Inhibition Average 5 μM [2]	Screening data (Relative infection to DMSO controls) Average 5 μM [2]	Percentage Inhibition Average 10 μM [2]	Screening data (Relative infection to DMSO controls) Average 10 μM [2]	Percentage Inhibition Average 25 μM [2]	Screening data (Relative infection to DMSO controls) Average 25 μM [2]	Percentage Inhibition Average 50 μM [2]	Screening data (Relative infection to DMSO controls) Average 50 μM [2]	Average (relative infection to DMSO over the 5 tested concentrations) [2]	also measured
CCN(CC)CCN(Cc1ccncc1)C(=O)c1cccs1 [SILCS38]	111.85	110	115.05	107.71	105.21	109.96	23.75%	76.25	15.22%	84.78	26.94%	73.06	1.37%	98.63	13.51%	86.49	83.84	Toxicity Data, Average, Mean percentage relative to DMSO control ([1]; n=4, 1 uM): 111.85%; Toxicity Data, Average, Mean percentage relative to DMSO control ([1]; n=4, 5 uM): 110.00%; Toxicity Data, Average, Mean percentage relative to DMSO control ([1]; n=4, 10 uM): 115.05%; Toxicity Data, Average, Mean percentage relative to DMSO control ([1]; n=4, 25 uM): 107.71%; Toxicity Data, Average, Mean percentage relative to DMSO control ([1]; n=4, 50 uM): 105.21%; Percentage Infection Relative to Appropriate DMSO Control with Avg Background Subtraction ([2]; Exp 1 (SMW491), 1 uM): 101.61% and 80.30%; Percentage Infection Relative to Appropriate DMSO Control with Avg Background Subtraction ([2]; Exp 1 (SMW491), 5 uM): 101.51% and 104.07%; Percentage Infection Relative to Appropriate DMSO Control with Avg Background Subtraction ([2]; Exp 1 (SMW491), 10 uM): 91.03% and 87.80%; Percentage Infection Relative to Appropriate DMSO Control with Avg Background Subtraction ([2]; Exp 1 (SMW491), 25 uM): 110.71% and 103.81%; Percentage Infection Relative to Appropriate DMSO Control with Avg Background Subtraction ([2]; Exp 1 (SMW491), 50 uM): 96.25% and 89.03%; Percentage Infection Relative to Appropriate DMSO Control with Avg Background Subtraction ([2]; Exp 2 (SMW492), 1 uM): 74.34% and 48.74%; Percentage Infection Relative to Appropriate DMSO Control with Avg Background Subtraction ([2]; Exp 2 (SMW492), 5 uM): 72.80% and 60.72%; Percentage Infection Relative to Appropriate DMSO Control with Avg Background Subtraction ([2]; Exp 2 (SMW492), 10 uM): 63.76% and 49.65%; Percentage Infection Relative to Appropriate DMSO Control with Avg Background Subtraction ([2]; Exp 2 (SMW492), 50 uM): 90.22% and 70.45%; Infection Data, Average, Mean ([2]; n 4, 1 uM): 76.25%; Infection Data, Average, Mean ([2]; n 4, 5 uM): 84.78%; Infection Data, Average, Mean ([2]; n 4, 10 uM): 73.06%; Infection Data, Average, Mean ([2]; n 4, 25 uM): 98.63%; Infection Data, Average, Mean ([2]; n 4, 50 uM): 86.49%
COCC1=C(C(=O)NCC2CCC2)C(c2cccs2)NC(=O)N1 (centres unmarked) [SILCS56]	120.34	119.22	119.65	104.41	89.59	110.64	31.59%	68.41	44.15%	55.85	29.24%	70.76	2.27%	97.73	−21.04%	121.04	82.76	

From patent US20240132484A1, “BROAD SPECTRUM ANTIVIRAL COMPOUNDS TARGETING THE SKI COMPLEX” (priority 2020, published 2024)
